Assay results from US11649510B2, “Screening method for materials that suppress characteristic body odor of elderly people” (Takasago International Corporation, priority 2017, dated 2023).

Experiments:
OR1D2 = biological target: T1, OR1D2 (Homo sapiens, UniProt P34982); experiment: luciferase reporter gene assay, response of OR1D2 to odorous substance; type: cell-based
T1 sequence (P34982 1-312): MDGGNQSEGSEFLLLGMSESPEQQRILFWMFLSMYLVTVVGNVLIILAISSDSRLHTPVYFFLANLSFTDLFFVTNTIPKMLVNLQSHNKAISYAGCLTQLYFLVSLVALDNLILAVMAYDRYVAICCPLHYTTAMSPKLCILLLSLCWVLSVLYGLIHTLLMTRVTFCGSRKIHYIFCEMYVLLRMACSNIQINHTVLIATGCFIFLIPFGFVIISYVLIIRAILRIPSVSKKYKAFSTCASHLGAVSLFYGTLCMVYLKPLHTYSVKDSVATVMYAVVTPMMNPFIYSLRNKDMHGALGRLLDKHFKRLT

OR52N2 = biological target: T2, OR52N2 (Homo sapiens, UniProt Q8NGI0); experiment: luciferase reporter gene assay, response of OR52N2 to odorous substance; type: cell-based
T2 sequence (Q8NGI0 1-321): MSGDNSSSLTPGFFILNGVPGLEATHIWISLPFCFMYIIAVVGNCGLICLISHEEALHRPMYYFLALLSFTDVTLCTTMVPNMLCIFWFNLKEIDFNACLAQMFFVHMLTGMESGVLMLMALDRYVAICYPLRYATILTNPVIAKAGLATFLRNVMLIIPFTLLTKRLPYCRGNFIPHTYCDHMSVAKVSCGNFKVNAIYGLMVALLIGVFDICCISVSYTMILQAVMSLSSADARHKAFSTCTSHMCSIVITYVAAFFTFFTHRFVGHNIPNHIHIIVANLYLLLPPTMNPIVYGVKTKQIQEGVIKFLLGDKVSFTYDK

OR2C1 [1] = biological target: T3, OR2C1 (Homo sapiens, UniProt O95371); experiment: luciferase reporter gene assay, response of OR2C1 to odorous substance; type: cell-based
T3 sequence (O95371 1-312): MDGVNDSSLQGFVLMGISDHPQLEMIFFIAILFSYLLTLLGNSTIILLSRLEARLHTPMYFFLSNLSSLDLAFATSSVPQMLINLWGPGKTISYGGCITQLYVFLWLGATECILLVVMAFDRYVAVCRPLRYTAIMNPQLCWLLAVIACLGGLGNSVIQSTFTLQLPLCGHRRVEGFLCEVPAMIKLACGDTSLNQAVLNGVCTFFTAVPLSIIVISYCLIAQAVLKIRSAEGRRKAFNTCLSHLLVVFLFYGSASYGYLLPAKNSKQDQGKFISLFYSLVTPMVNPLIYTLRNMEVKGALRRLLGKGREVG

OR5P3 = biological target: T4, OR5P3 (Homo sapiens, UniProt Q8WZ94); experiment: luciferase reporter gene assay, response of OR5P3 to odorous substance; type: cell-based
T4 sequence (Q8WZ94 1-311): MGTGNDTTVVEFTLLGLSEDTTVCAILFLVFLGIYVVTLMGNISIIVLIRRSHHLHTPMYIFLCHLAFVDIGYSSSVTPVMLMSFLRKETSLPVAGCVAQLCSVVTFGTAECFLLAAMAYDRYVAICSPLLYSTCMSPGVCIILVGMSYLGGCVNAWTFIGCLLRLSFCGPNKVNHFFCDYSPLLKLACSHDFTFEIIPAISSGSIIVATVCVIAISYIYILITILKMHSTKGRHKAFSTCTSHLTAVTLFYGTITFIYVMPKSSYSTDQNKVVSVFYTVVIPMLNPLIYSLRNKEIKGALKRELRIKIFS

OR4E2 = biological target: T5, OR4E2 (Homo sapiens, UniProt Q8NGC2, Q234R/V118M); experiment: luciferase reporter gene assay, response of OR4E2 to odorous substance; type: cell-based
T5 sequence (Q8NGC2 1-313 V118M/Q234R): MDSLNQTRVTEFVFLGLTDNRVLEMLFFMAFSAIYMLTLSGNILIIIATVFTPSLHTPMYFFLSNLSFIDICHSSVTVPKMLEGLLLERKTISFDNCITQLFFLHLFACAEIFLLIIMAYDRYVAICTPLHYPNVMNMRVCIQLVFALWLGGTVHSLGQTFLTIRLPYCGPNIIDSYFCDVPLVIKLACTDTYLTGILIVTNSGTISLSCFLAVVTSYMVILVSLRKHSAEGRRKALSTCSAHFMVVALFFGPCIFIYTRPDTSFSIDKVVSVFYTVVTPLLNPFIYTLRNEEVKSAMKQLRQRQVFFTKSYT

OR2C1 [2] = biological target: T3, OR2C1; experiment: suppressive effect on the response of OR2C1 to trans-2-nonenal, luciferase reporter gene assay; settings: mixed with trans-2-nonenal as analyte; FIGS. 9 and 10
From the text: Human olfactory receptor genes were obtained by PCR cloning with Human Genomic DNA: Female (Promega) on the basis of their sequence information registered in GenBank. Into pME18S vectors, the N-terminal 20 amino acid residues of bovine rhodopsin were integrated, and subsequently the resulting human olfactory receptor genes were integrated respectively downstream thereof to obtain human olfactory receptor gene expression vectors. […]
After removal of the culture solutions, an odorous substance serving as an analyte, which had been prepared at a given concentration with CD293 (gibco) medium (supplemented with 20 μM L-glutamine), was added in 50 μL volumes to stimulate the cells for 3 hours, followed by luciferase activity measurement in accordance with the usage of a Dual-Luciferase Reporter Assay System (Promega). The response intensity of each olfactory receptor polypeptide was expressed as a fold increase value, which was determined by dividing the luciferase activity generated upon stimulation with the odorous substance by the luciferase activity generated in a test system not containing the odorous substance.

OR51A7 = biological target: T6, OR51A7 (Homo sapiens, UniProt Q8NH64); experiment: luciferase reporter gene assay, response of OR51A7 to odorous substance; type: cell-based; settings: trans-2-octenal 50 μM, HEK293T cells expressing OR51A7
T6 sequence (Q8NH64 1-312): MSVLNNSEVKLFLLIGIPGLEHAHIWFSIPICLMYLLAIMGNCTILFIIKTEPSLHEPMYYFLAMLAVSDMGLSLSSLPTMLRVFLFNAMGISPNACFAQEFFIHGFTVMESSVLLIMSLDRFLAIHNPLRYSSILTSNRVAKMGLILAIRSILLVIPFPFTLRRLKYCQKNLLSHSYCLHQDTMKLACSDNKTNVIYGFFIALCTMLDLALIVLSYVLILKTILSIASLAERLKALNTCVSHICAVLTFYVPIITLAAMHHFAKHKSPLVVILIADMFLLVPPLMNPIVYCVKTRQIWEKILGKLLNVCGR
Method: (§1) In the same manner as shown in Example 1, the cells engineered to express 402 types of human olfactory receptors were measured for receptor responses to trans-2-octenal (50 μM) by the luciferase reporter gene assay.

OR9I1 = biological target: T7, OR9I1 (Homo sapiens, UniProt Q8NGQ6); experiment: luciferase reporter gene assay, response of OR9I1 to odorous substance; type: cell-based; settings: trans-2-octenal 50 μM, HEK293T cells expressing OR9I1
T7 sequence (Q8NGQ6 1-314): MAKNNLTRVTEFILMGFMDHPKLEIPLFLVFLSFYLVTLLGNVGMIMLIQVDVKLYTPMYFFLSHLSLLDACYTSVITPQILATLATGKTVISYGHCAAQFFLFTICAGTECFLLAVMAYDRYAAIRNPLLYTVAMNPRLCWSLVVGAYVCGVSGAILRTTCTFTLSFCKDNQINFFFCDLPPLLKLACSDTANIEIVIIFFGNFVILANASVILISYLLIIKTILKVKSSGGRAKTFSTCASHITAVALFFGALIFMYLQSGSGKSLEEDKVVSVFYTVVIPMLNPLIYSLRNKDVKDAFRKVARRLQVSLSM
Method: as §1

OR7G1 = biological target: T8, OR7G1 (Homo sapiens, UniProt Q8NGA0); experiment: luciferase reporter gene assay, response of OR7G1 to odorous substance; type: cell-based; settings: trans-2-octenal 50 μM, HEK293T cells expressing OR7G1
T8 sequence (Q8NGA0 1-311): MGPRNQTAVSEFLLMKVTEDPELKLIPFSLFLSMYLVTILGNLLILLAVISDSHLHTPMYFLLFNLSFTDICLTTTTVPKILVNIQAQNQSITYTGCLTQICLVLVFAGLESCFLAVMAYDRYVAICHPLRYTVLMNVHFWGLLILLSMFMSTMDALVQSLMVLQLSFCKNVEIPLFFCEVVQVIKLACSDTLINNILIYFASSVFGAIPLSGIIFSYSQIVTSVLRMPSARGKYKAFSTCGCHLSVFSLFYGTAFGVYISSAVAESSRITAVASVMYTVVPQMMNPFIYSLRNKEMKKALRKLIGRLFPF
Method: as §1

CCCCCC/C=C/C=O [trans-2-nonenal]
receptor response to different concentrations (OR1D2; different concentrations of trans-2-nonenal, FIG. 2, no response in mock test): respond to trans-2-nonenal in a concentration-dependent manner | fold increase value (receptor response) (OR1D2; trans-2-nonenal 60 μM, HEK293T cells expressing OR1D2, 3 hours): ≥ 2 | receptor response to different concentrations (OR52N2; different concentrations of trans-2-nonenal, FIG. 7, no response in mock test): respond to trans-2-nonenal in a concentration-dependent manner | fold increase value (receptor response) (OR52N2; trans-2-nonenal 60 μM, HEK293T cells expressing OR52N2, 3 hours): ≥ 2 | receptor response to different concentrations (OR2C1 [1]; different concentrations of trans-2-nonenal, FIG. 3, no response in mock test): respond to trans-2-nonenal in a concentration-dependent manner | fold increase value (receptor response) (OR2C1 [1]; trans-2-nonenal 60 μM, HEK293T cells expressing OR2C1, 3 hours): ≥ 2 | receptor response to different concentrations (OR5P3; different concentrations of trans-2-nonenal, FIG. 6, no response in mock test): respond to trans-2-nonenal in a concentration-dependent manner | fold increase value (receptor response) (OR5P3; trans-2-nonenal 60 μM, HEK293T cells expressing OR5P3, 3 hours): ≥ 2 | receptor response to different concentrations (OR4E2; different concentrations of trans-2-nonenal, FIG. 5, no response in mock test): respond to trans-2-nonenal in a concentration-dependent manner | fold increase value (receptor response) (OR4E2; trans-2-nonenal 60 μM, HEK293T cells expressing OR4E2, 3 hours): ≥ 2

CC1=CC(C)C(C=O)CC1 (stereo not drawn) [dimethyltetrahydrobenzaldehyde]
suppressive effect on the response of OR2C1 to trans-2-nonenal (ratio of fold increase value, test without material set to 100) (OR2C1 [2]): reducing the response of OR2C1 to trans-2-nonenal in a concentration-dependent manner

CC/C=C\CCO [cis-3-Hexenol]
suppressive effect on the response of OR2C1 to trans-2-nonenal (ratio of fold increase value, test without material set to 100) (OR2C1 [2]): reducing the response of OR2C1 to trans-2-nonenal in a concentration-dependent manner

CCCCC/C=C/C=O [trans-2-octenal]
fold increase value (receptor response) (OR51A7): ≥ 2 | fold increase value (receptor response) (OR9I1): ≥ 2 | fold increase value (receptor response) (OR2C1 [1]; trans-2-octenal 50 μM, HEK293T cells expressing OR2C1): ≥ 2 | fold increase value (receptor response) (OR7G1): ≥ 2 | fold increase value (receptor response) (OR5P3; trans-2-octenal 50 μM, HEK293T cells expressing OR5P3): ≥ 2 | fold increase value (receptor response) (OR4E2; trans-2-octenal 50 μM, HEK293T cells expressing OR4E2): ≥ 2
